Tested on: mRNA expression in BFU-E cells
Test: mRNA-Seq of BFU-E cells cultured 4 hours with or without Dex (Table S3)
Assay type: cell-based, mouse
Conditions: for Expression level log2((100 nM DEX)* (0 nM DEX)) / Expression of mRNA in BFU-E after 4 h 100 nM DEX (RPKM) / Expression change log2 ((100 nM DEX)/(0 nM DEX))2 / Expression change log2 ((100 nM DEX)/(0 nM DEX)): BFU-E, 4 h; for Expression change log2 ((100 nM DEX)/(0 nM DEX)): 100 nM vs 0 nM DEX
Description: FIGS. 2A-2B. The effect of glucocorticoids on miRNA and mRNA expression in BFU-E cells determined by next generation sequencing. […] Both mRNAs and miRNAs were subjected to Illumina deep sequencing. […] (B) A plot similar to that in A for expression of individual mRNAs. mRNA expression was normalized using the RPKM method, which determines the relative expression of each gene to all expressed genes by giving each gene an RPKM count (number of uniquely aligning reads per kb exon per million total reads). […]
To minimize the risk of false positive GC target genes we chose to compare only highly expressed genes (≈10,000 genes with a multiplied RPKM count >4) (Mortazavi et al., 2008).
Samples for Paired-End mRNA-Seq were prepared using the Solexa kit according to the manufacturer's instructions with the exception that we extracted 300 bp bands, before and after the PCR step (Illumina). Images acquired from the Solexa sequencer were processed through the bundled Solexa image extraction pipeline version 1.4. mRNA-Seq reads were aligned to mouse NCBI build 37 (mm9) using ELAND, Briefly, the first 32 bases of a read were used as a seed. Each matched seed was then extended up to 36 bases and scored to break any ties between multi-matches. For mRNA expression counts, unique reads in the genome that landed within any exons of NCBI gene models (v37.1) were counted. The counts were normalized by the mRNA length to get the final RPKM values (i.e. reads per KB per million reads).

C[C@@H]1C[C@H]2[C@@H]3CCC4=CC(=O)C=C[C@]4(C)[C@@]3(F)[C@@H](O)C[C@]2(C)[C@@]1(O)C(=O)CO [Dex, dexamethasone]
Expression level log2((100 nM DEX)* (0 nM DEX)) (gene Kit): 12.13
Expression of mRNA in BFU-E after 4 h 100 nM DEX (RPKM) (gene Kit): 97.02 RPKM
Expression level log2((100 nM DEX)* (0 nM DEX)) (gene Klf9): 4.86
Expression of mRNA in BFU-E after 4 h 100 nM DEX (RPKM) (gene Klf9): 8.07 RPKM
Expression change log2 ((100 nM DEX)/(0 nM DEX))2 (gene Klf13): 1.37
Expression level log2((100 nM DEX)* (0 nM DEX)) (gene Klf13): 8.41
Expression of mRNA in BFU-E after 4 h 100 nM DEX (RPKM) (gene Klf13): 29.57 RPKM
Expression of mRNA in BFU-E after 4 h 100 nM DEX (RPKM) (gene Lama5): 3.90 RPKM
Expression change log2 ((100 nM DEX)/(0 nM DEX))2 (gene Lrfn1): 1.05
Expression level log2((100 nM DEX)* (0 nM DEX)) (gene Lrfn1): 2.45
Expression of mRNA in BFU-E after 4 h 100 nM DEX (RPKM) (gene Lrfn1): 3.37 RPKM
Expression of mRNA in BFU-E after 4 h 100 nM DEX (RPKM) (gene Maff): 6.11 RPKM
Expression change log2 ((100 nM DEX)/(0 nM DEX)) (gene Maff): 2.58
Expression level log2((100 nM DEX)* (0 nM DEX)) (gene Man2a2): 9.07
Expression of mRNA in BFU-E after 4 h 100 nM DEX (RPKM) (gene Man2a2): 35.22 RPKM
Expression level log2((100 nM DEX)* (0 nM DEX)) (gene Mobkl2c): 5.14
Expression of mRNA in BFU-E after 4 h 100 nM DEX (RPKM) (gene Mobkl2c): 8.65 RPKM
Expression of mRNA in BFU-E after 4 h 100 nM DEX (RPKM) (gene Mt2): 1306.42 RPKM
Expression change log2 ((100 nM DEX)/(0 nM DEX))2 (gene Nags): 1.02
Expression level log2((100 nM DEX)* (0 nM DEX)) (gene Nags): 2.04
Expression of mRNA in BFU-E after 4 h 100 nM DEX (RPKM) (gene Nags): 2.88 RPKM
Expression of mRNA in BFU-E after 4 h 100 nM DEX (RPKM) (gene Ncoa7): 7.54 RPKM
Expression change log2 ((100 nM DEX)/(0 nM DEX))2 (gene Nfkbia): 1.36
Expression level log2((100 nM DEX)* (0 nM DEX)) (gene Nfkbia): 4.55
Expression of mRNA in BFU-E after 4 h 100 nM DEX (RPKM) (gene Nfkbia): 7.75 RPKM
Expression of mRNA in BFU-E after 4 h 100 nM DEX (RPKM) (gene Nhej1): 4.51 RPKM
Expression level log2((100 nM DEX)* (0 nM DEX)) (gene Nrgn): 7.68
Expression of mRNA in BFU-E after 4 h 100 nM DEX (RPKM) (gene Nrgn): 21.01 RPKM
Expression of mRNA in BFU-E after 4 h 100 nM DEX (RPKM) (gene Per1): 23.34 RPKM
Expression change log2 ((100 nM DEX)/(0 nM DEX)) (gene Per1): 2.30
Expression of mRNA in BFU-E after 4 h 100 nM DEX (RPKM) (gene Pex11a): 5.87 RPKM
Expression of mRNA in BFU-E after 4 h 100 nM DEX (RPKM) (gene Pfkfb4): 12.25 RPKM
Expression change log2 ((100 nM DEX)/(0 nM DEX)) (gene Pfkfb4): 2.47
Expression level log2((100 nM DEX)* (0 nM DEX)) (gene Pld6): 2.64
Expression of mRNA in BFU-E after 4 h 100 nM DEX (RPKM) (gene Pld6): 3.65 RPKM
Expression of mRNA in BFU-E after 4 h 100 nM DEX (RPKM) (gene Plk3): 5.75 RPKM
Expression change log2 ((100 nM DEX)/(0 nM DEX)) (gene Plk3): 1.76
Expression level log2((100 nM DEX)* (0 nM DEX)) (gene Polr3gl): 3.89
Expression of mRNA in BFU-E after 4 h 100 nM DEX (RPKM) (gene Polr3gl): 5.93 RPKM
Expression level log2((100 nM DEX)* (0 nM DEX)) (gene Rab3il1): 3.44
Expression of mRNA in BFU-E after 4 h 100 nM DEX (RPKM) (gene Rab3il1): 4.94 RPKM
Expression level log2((100 nM DEX)* (0 nM DEX)) (gene Rapgef2): 2.18
Expression of mRNA in BFU-E after 4 h 100 nM DEX (RPKM) (gene Rapgef2): 3.28 RPKM
Expression of mRNA in BFU-E after 4 h 100 nM DEX (RPKM) (gene Rcsd1): 8.11 RPKM
Expression change log2 ((100 nM DEX)/(0 nM DEX)) (gene Rcsd1): 1.68
Expression level log2((100 nM DEX)* (0 nM DEX)) (gene Rps6ka1): 9.31
Expression of mRNA in BFU-E after 4 h 100 nM DEX (RPKM) (gene Rps6ka1): 39.02 RPKM
Expression of mRNA in BFU-E after 4 h 100 nM DEX (RPKM) (gene Serpina3g): 36.06 RPKM
Expression change log2 ((100 nM DEX)/(0 nM DEX)) (gene Serpina3g): 2.06
Expression of mRNA in BFU-E after 4 h 100 nM DEX (RPKM) (gene Slc30a10): 7.11 RPKM
Expression level log2((100 nM DEX)* (0 nM DEX)) (gene Slc44a2): 9.19
Expression of mRNA in BFU-E after 4 h 100 nM DEX (RPKM) (gene Slc44a2): 35.91 RPKM
Expression of mRNA in BFU-E after 4 h 100 nM DEX (RPKM) (gene Socs1): 34.03 RPKM
Expression change log2 ((100 nM DEX)/(0 nM DEX)) (gene Socs1): 2.74
Expression level log2((100 nM DEX)* (0 nM DEX)) (gene Spry1): 5.36
Expression of mRNA in BFU-E after 4 h 100 nM DEX (RPKM) (gene Spry1): 9.31 RPKM
Expression of mRNA in BFU-E after 4 h 100 nM DEX (RPKM) (gene St3gal2): 23.29 RPKM
Expression of mRNA in BFU-E after 4 h 100 nM DEX (RPKM) (gene Syne1): 7.36 RPKM
Expression change log2 ((100 nM DEX)/(0 nM DEX))2 (gene Tle4): 1.29
Expression level log2((100 nM DEX)* (0 nM DEX)) (gene Tle4): 6.76
Expression of mRNA in BFU-E after 4 h 100 nM DEX (RPKM) (gene Tle4): 16.27 RPKM
Expression of mRNA in BFU-E after 4 h 100 nM DEX (RPKM) (gene Tns1): 20.01 RPKM
Expression of mRNA in BFU-E after 4 h 100 nM DEX (RPKM) (gene Tph1): 5.51 RPKM
Expression level log2((100 nM DEX)* (0 nM DEX)) (gene Trib2): 4.11
Expression of mRNA in BFU-E after 4 h 100 nM DEX (RPKM) (gene Trib2): 6.12 RPKM
Expression of mRNA in BFU-E after 4 h 100 nM DEX (RPKM) (gene Tsc22d3): 19.83 RPKM
Expression level log2((100 nM DEX)* (0 nM DEX)) (gene Txnip): 8.13
Expression of mRNA in BFU-E after 4 h 100 nM DEX (RPKM) (gene Txnip): 24.97 RPKM
Expression of mRNA in BFU-E after 4 h 100 nM DEX (RPKM) (gene Wdr21): 48.20 RPKM
Expression change log2 ((100 nM DEX)/(0 nM DEX))2 (gene Wdr60): 1.05
Expression level log2((100 nM DEX)* (0 nM DEX)) (gene Wdr60): 5.00
Expression of mRNA in BFU-E after 4 h 100 nM DEX (RPKM) (gene Wdr60): 8.14 RPKM
Expression change log2 ((100 nM DEX)/(0 nM DEX))2 (gene Zbtb16): 1.30
Expression level log2((100 nM DEX)* (0 nM DEX)) (gene Zbtb16): 3.93
Expression of mRNA in BFU-E after 4 h 100 nM DEX (RPKM) (gene Zbtb16): 6.14 RPKM
Expression of mRNA in BFU-E after 4 h 100 nM DEX (RPKM) (gene Zfp1): 5.67 RPKM
Expression change log2 ((100 nM DEX)/(0 nM DEX)) (gene Zfp1): 2.96
Expression level log2((100 nM DEX)* (0 nM DEX)) (gene Zfp36l2): 13.36
Expression of mRNA in BFU-E after 4 h 100 nM DEX (RPKM) (gene Zfp36l2): 163.74 RPKM
Genes upregulated 50% or more (multiplied RPKM count greater than zero): 395 genes

Source: patent publication US20130059783A1, “COMPOSITIONS AND METHODS FOR EXPANDING BFU-E CELLS” (priority 2010, published 2013)
